# Measured values from patent US11078168B2, “Substituted N-hydroxyamidinoheterocycles as modulators of indoleamine 2,3-dioxygenase” (PHENEX DISCOVERY VERWALTUNGS-GMBH, priority 2016, dated 2021).
# Molecular target: T1, Indoleamine 2,3-dioxygenase (Homo sapiens, UniProt P14902)
# T1 construct: endogenous in cells; host or cells: SKOV-3 (ATCC HTB-77), stimulated with interferon gamma
# Experiment: SKOV-3 cellular Indoleamine 2,3-dioxygenase assay
# Settings: SKOV-3 cells, 50 ng/ml Interferon gamma, 100 μM L-Tryptophan, 24 hours, N-Formylkynurenin fluorescence detection; read-out: cell based activity
# How it was run: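 SKOV-3 cells stimulated with 50 ng/ml interferon gamma, exposed to compound dilutions with L-tryptophan at 100 µM final for 24 h at 37 °C. N-formylkynurenine detected by 200 mM 3-methylpiperidine, 65 °C for 20 min, fluorescence ex 405/em 535 nm.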
# T1 sequence (P14902 whole entry): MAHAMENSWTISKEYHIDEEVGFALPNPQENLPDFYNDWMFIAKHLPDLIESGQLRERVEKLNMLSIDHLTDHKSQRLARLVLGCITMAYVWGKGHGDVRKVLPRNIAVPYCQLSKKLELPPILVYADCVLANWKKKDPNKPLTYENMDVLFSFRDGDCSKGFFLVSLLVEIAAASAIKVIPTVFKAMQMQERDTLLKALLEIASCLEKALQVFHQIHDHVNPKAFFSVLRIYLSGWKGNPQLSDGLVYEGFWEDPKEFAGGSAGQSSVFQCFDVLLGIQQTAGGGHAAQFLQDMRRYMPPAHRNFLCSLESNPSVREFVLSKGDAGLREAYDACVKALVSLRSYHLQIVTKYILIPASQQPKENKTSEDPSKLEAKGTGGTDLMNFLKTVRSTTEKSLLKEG
row,IC50 [nM],SMILES
1,100 to 1000,"Nc1nnc(NCCOc2nonc2C(=NO)Nc2ccc(F)c(Cl)c2)[nH]1 [Example 15, 4-(2-((5-Amino-4H-1,2,4-triazol-3-yl)amino)ethoxy)-N-(3-chloro-4-fluorophenyl)-N′-hydroxy-1,2,5-oxadiazole-3-carboximidamide]"
2,> 1000,"O=C(O)CCOc1nonc1C(=NO)Nc1ccc(F)c(Cl)c1 [Example 13, 3-((4-(N-(3-Chloro-4-fluorophenyl)-N′-hydroxycarbamimidoyl)-1,2,5-oxadiazol-3-yl)oxy)propanoic acid]"
3,100 to 1000,Nc1c(NCCOc2nonc2C(=NO)Nc2cccc(C(F)F)c2)c(=O)c1=O [2/7]
4,< 100,NS(=O)(=O)CC(=O)NCCSc1nonc1C(=NO)Nc1cc(F)c(F)c(C(F)F)c1 [107/33]
5,100 to 1000,"ON=C(Nc1ccc(F)c(Cl)c1)c1nonc1SCc1ccccc1 [Example 103, 4-(Benzylthio)—N-(3-chloro-4-fluorophenyl)-N′-hydroxy-1,2,5-oxadiazole-3-carboximidamide]"
6,< 100,N#Cc1cccc(N/C(=N\O)c2nonc2SCCNC(=O)CS(N)(=O)=O)c1 [107/12]
7,< 100,NS(=O)(=O)CC(=O)NCCSc1nonc1/C(=N/O)Nc1cccc(Br)c1 [107/4]
8,< 100,"COc1nonc1/C(=N/O)Nc1ccc(F)c(Br)c1 [8/1, N-(3-Bromo-4-fluorophenyl)-N-hydroxy-4-methoxy-1,2,5-oxadiazole-3-carboximidamide]"
9,< 100,CS(=O)(=O)c1ccc(C(=O)NCCSc2nonc2C(=NO)Nc2ccc(F)c(C(F)F)c2)cc1 [107/24]
10,100 to 1000,"Cc1nnc(CCCOc2nonc2C(=NO)Nc2ccc(F)c(Cl)c2)[nH]1 [Example 12, N-(3-Chloro-4-fluorophenyl)-N′-hydroxy-4-(3-(5-methyl-4H-1,2,4-triazol-3-yl)propoxy)-1,2,5-oxadiazole-3-carboximidamide]"
11,< 100,NS(=O)(=O)CC(=O)NCCSc1nonc1/C(=N/O)Nc1cccc(C(F)F)c1 [117/19]
12,100 to 1000,"CN1CCN(CCOc2nonc2C(=NO)Nc2ccc(F)c(Cl)c2)CC1 [10/1, N-(3-Chloro-4-fluorophenyl)-N′-hydroxy-4-(2-(4-methylpiperazin-1-yl)ethoxy)-1,2,5-oxadiazole-3-carboximidamide]"
13,100 to 1000,O=C(NCCSc1nonc1C(=NO)Nc1ccc(F)c(Cl)c1)c1n[nH]c(=O)[nH]1 [117/1]
14,100 to 1000,O=C(NCCOc1nonc1C(=NO)Nc1ccc(F)c(Cl)c1)c1ccc2[nH]ccc2c1 [9/2]
15,< 100,Cc1nnc(C(=O)NCCSc2nonc2C(=NO)Nc2ccc(F)c(Cl)c2)o1 [117/7]
16,100 to 1000,NC(=O)C1(C(=O)NCCSc2nonc2C(=NO)Nc2ccc(F)c(C(F)F)c2)CNC1 [Example 126]
17,< 100,"CC1(O)CN(CCSc2nonc2C(=NO)Nc2ccc(F)c(C(F)F)c2)C1 [Example 108, N-(3-(Difluoromethyl)-4-fluorophenyl)-N′-hydroxy-4-((2-(3-hydroxy-3-methylazetidin-1-yl)ethyl)thio)-1,2,5-oxadiazole-3-carboximidamide]"
18,< 100,NC(=O)C(F)(F)C(=O)NCCSc1nonc1C(=NO)Nc1ccc(F)c(C(F)F)c1 [Example 118]
19,< 100,CC(C)(O)c1ccc(C(=O)NCCSc2nonc2C(=NO)Nc2ccc(F)c(C(F)(F)F)c2)cc1 [107/19]

row,IC50 [nM],SMILES
1,< 100,CS(=O)(=O)CC(=O)NCCOc1nonc1C(=NO)Nc1ccc(F)c(Cl)c1 [9/15]
2,< 100,NC(C(=O)NCCOc1nonc1C(=NO)Nc1ccc(F)c(Cl)c1)C(F)(F)F (stereo not drawn) [3/4]
3,< 100,CS(=N)(=O)CC(=O)NCCSc1nonc1C(=NO)Nc1ccc(F)c(C(F)(F)F)c1 (stereo not drawn) [127/2]
4,< 100,CC1(C(=O)NCCSc2nonc2/C(=N/O)Nc2ccc(F)c(C(F)F)c2)CCN1 (stereo not drawn) [123/3]
5,< 100,O=C(NCCSc1nonc1C(=NO)Nc1ccc(F)c(C(F)F)c1)c1ccc(-n2cnnn2)cc1 [107/27]
6,100 to 1000,O=C(NCCOc1nonc1C(=NO)Nc1ccc(F)c(Cl)c1)C1(O)CNC1 [3/2]
7,100 to 1000,CC(C)(C)OC(=O)NC1(C(=O)NCCOc2nonc2C(=NO)Nc2ccc(F)c(Cl)c2)COC1 [9/16]
8,< 100,Nc1c(NCCOc2nonc2C(=NO)Nc2ccc(F)c(Br)c2)c(=O)c1=O [2/1]
9,< 100,"NC(=O)C(=O)NCCSc1nonc1C(=NO)Nc1ccc(F)c(Cl)c1 [Example 116, N^1-(2-((4-(N-(3-Chloro-4-fluorophenyl)-N′-hydroxycarbamimidoyl)-1,2,5-oxadiazol-3-yl)thio)ethyl)oxalamide]"
10,< 100,CS(=O)(=O)CCC(=O)NCCSc1nonc1C(=NO)Nc1cccc(Cl)c1 [107/39]
11,100 to 1000,"C[S+]([O-])c1nonc1C(=NO)Nc1ccc(F)c(Br)c1 (stereo not drawn) [Example 105, N-(3-Bromo-4-fluorophenyl)-N′-hydroxy-4-(methylsulfinyl)-1,2,5-oxadiazole-3-carboximidamide]"
12,> 1000,"CS(=N)(=O)c1nonc1C(=NO)Nc1ccc(F)c(Br)c1 (stereo not drawn) [Example 106, N-(3-Bromo-4-fluorophenyl)-N′-hydroxy-4-(S-methylsulfonimidoyl)-1,2,5-oxadiazole-3-carboximidamide]"
13,100 to 1000,O=C(NCCOc1nonc1C(=NO)Nc1ccc(F)c(Cl)c1)c1nnc[nH]1 [9/5]
14,< 100,NC(=O)CS(=O)(=O)NCCSc1nonc1C(=NO)Nc1cccc(C(F)F)c1 [119/4]
15,100 to 1000,"CS(=N)(=O)NCCOc1nonc1C(=NO)Nc1ccc(F)c(Cl)c1 (stereo not drawn) [Example 21, N-(3-Chloro-4-fluorophenyl)-N-hydroxy-4-(2-(methylsulfonoamidimidamido)ethoxy)-1,2,5-oxadiazole-3-carboximidamide]"
16,100 to 1000,CNS(=O)(=O)N(C)CCOc1nonc1C(=NO)Nc1ccc(F)c(Cl)c1 [6/5]
17,100 to 1000,O=C(NCCSc1nonc1C(=NO)Nc1ccc(F)c(C(F)(F)F)c1)C1(O)CNC1 [123/1]
18,< 100,CS(=O)(=O)Nc1ccc(C(=O)NCCSc2nonc2C(=NO)Nc2ccc(F)c(C(F)F)c2)cc1 [117/10]
19,< 100,CC(C)(O)C(O)C(=O)NCCSc1nonc1C(=NO)Nc1ccc(F)c(C(F)F)c1 (stereo not drawn) [107/1]

row,IC50 [nM],SMILES
1,< 100,NS(=O)(=O)CCC(=O)NCCSc1nonc1C(=NO)Nc1ccc(F)c(C(F)F)c1 [107/36]
2,100 to 1000,O=C(O)CC1CN(CCSc2nonc2C(=NO)Nc2ccc(F)c(C(F)F)c2)C1 [108/2]
3,< 100,CS(=N)(=O)NCCSc1nonc1C(=NO)Nc1ccc(F)c(C(F)F)c1 (stereo not drawn) [120/1]
4,< 100,ON=C(Nc1ccc(F)c(Br)c1)c1nonc1SC1CC1 [Example 103/3]
5,< 100,NS(=O)(=O)N1CC(C(=O)NCCSc2nonc2C(=NO)Nc2ccc(F)c(C(F)F)c2)C1 [128/7]
6,100 to 1000,"NS(=O)(=O)NCCSc1nonc1C(=NO)Nc1ccnc(C(F)(F)F)c1 [Example 112/1, N′—Hydroxy-4-((2-(sulfamoylamino)ethyl)thio)—N-(2-(trifluoromethyl)pyridin-4-yl)-1,2,5-oxadiazole-3-carboximidamide]"
7,100 to 1000,O=C(NCCSc1nonc1C(=NO)Nc1ccc(F)c(Cl)c1)c1ccc(C(O)(C(F)(F)F)C(F)(F)F)cc1 [117/4]
8,< 100,"CS(=N)(=O)CC(=O)NCCSc1nonc1/C(=N/O)Nc1ccc(F)c(Br)c1 (stereo not drawn) [Example 127, N-(2-((4-(N-(3-Bromo-4-fluorophenyl)-N′-hydroxycarbamimidoyl)-1,2,5-oxadiazol-3-yl)thio)ethyl)-2-(S-methylsulfonimidoyl)acetamide]"
9,< 100,"NS(=O)(=O)NCCSc1nonc1/C(=N/O)Nc1ccc(F)c(Br)c1 [Example 101, N-(3-Bromo-4-fluorophenyl)-N′-hydroxy-4-((2-(sulfamoylamino)ethyl)thio)-1,2,5-oxadiazole-3-carboximidamide]"
10,< 100,CC(C)(C)OC(=O)NC1(CC(=O)NCCSc2nonc2C(=NO)Nc2ccc(F)c(C(F)F)c2)COC1 [117/20]
11,< 100,NS(=O)(=O)c1ccc(C(=O)NCCSc2nonc2C(=NO)Nc2ccc(F)c(C(F)F)c2)cc1 [117/14]
12,< 100,O=C(NCCSc1nonc1C(=NO)Nc1ccc(F)c(C(F)F)c1)C1CCN1 (stereo not drawn) [123/4]
13,> 1000,O=C(NCCCOc1nonc1C(=NO)Nc1ccc(F)c(Cl)c1)c1nn[nH]n1 [9/8]
14,> 1000,NS(=O)(=O)CC(=O)NCCSc1nonc1C(=NO)Nc1cncc(C(F)(F)F)c1 [107/34]
15,< 100,Cn1nc(C(=O)NCCSc2nonc2C(=NO)Nc2ccc(F)c(Cl)c2)[nH]c1=O [117/3]
16,< 100,O=C(NCCSc1nonc1C(=NO)Nc1ccc(F)c(C(F)F)c1)c1ccc(C(O)(C(F)(F)F)C(F)(F)F)nc1 [107/30]
17,< 100,O=C(NCCOc1nonc1C(=NO)Nc1ccc(F)c(Cl)c1)C1CC1 [9/3]
18,< 100,NC(=O)CS(=O)(=O)NCCOc1nonc1C(=NO)Nc1ccc(F)c(C(F)(F)F)c1 [4/1]
19,> 1000,CC(C)(C(=O)O)C(=O)NCCOc1nonc1C(=NO)Nc1ccc(F)c(Cl)c1 [9/11]
